# Measurements as given in ChEMBL document CHEMBL5505975, “Design, synthesis and biological evaluation of CDC20 inhibitors for treatment of triple-negative breast cancer” (Eur J Med Chem, 2024).
# Active and inactive are the calls of the source. No cut-off for these calls is given here.
# How the values were obtained:
# MDA-MB-468 = assay: Antiproliferative activity against human MDA-MB-468 cells assessed as reduction in cell viability incubated for 96 hrs by MTT assay; settings: MDA-MB-468, 96 h
# MDA-MB-231 [1] = assay: Cell cycle arrest in human MDA-MB-231 cells assessed as G1 phase cells at 20 uM incubated for 24 hrs by PI staining based flow cytometric analysis (reference value: 56.7%); assay type: functional
# MDA-MB-231 [2] = assay: Cell cycle arrest in human MDA-MB-231 cells assessed as G2 phase cells at 20 uM incubated for 24 hrs by PI staining based flow cytometric analysis (reference value: 14.6%); assay type: functional
# MDA-MB-231 [3] = assay: Cell cycle arrest in human MDA-MB-231 cells assessed as S phase cells at 20 uM incubated for 48 hrs by PI staining based flow cytometric analysis (reference value: 28.7%); assay type: functional
# MDA-MB-231 [4] = assay: Cell cycle arrest in human MDA-MB-231 cells assessed as G2 phase cells at 10 uM incubated for 48 hrs by PI staining based flow cytometric analysis (reference value: 7.3%); assay type: functional
# MDA-MB-231 [5] = assay: Antimigratory activity in human MDA-MB-231 cells assessed as reduction in migration ability incubated for 24 hrs by wound healing assay; assay type: functional, cell-based; settings: dose 2.5-10 µM
# MDA-MB-231 [6] = assay: Induction of autophagy in human MDA-MB-231 cells assessed as appearance of ring shaped aggregates at 5 to 20 uM incubated for 48 hrs by DAPI staining based immunofluorescence analysis; assay type: functional, cell-based; settings: dose 5-20 µM
# MDA-MB-231 [7] = assay: Induction of apoptosis in human MDA-MB-231 cells assessed as early apoptotic cells at 5 uM incubated for 48 hrs by Annexin V-FITC/PI staining based flow cytometric analysis (reference value: 2.25 %); assay type: functional
# MDA-MB-231 [8] = assay: Induction of apoptosis in human MDA-MB-231 cells assessed as late apoptotic cells at 5 uM incubated for 48 hrs by Annexin V-FITC/PI staining based flow cytometric analysis (reference value: 1.06%); assay type: functional
# MDA-MB-231 [9] = assay: Induction of apoptosis in human MDA-MB-231 cells assessed as early apoptotic cells at 10 uM incubated for 48 hrs by Annexin V-FITC/PI staining based flow cytometric analysis (reference value: 2.25 %); assay type: functional
# MDA-MB-231 [10] = assay: Induction of apoptosis in human MDA-MB-231 cells assessed as viable cells at 20 uM incubated for 48 hrs by Annexin V-FITC/PI staining based flow cytometric analysis (reference value: 95.10%); assay type: functional; settings: read-out: Activity
# 4T1 [11] = assay: Antitumor activity against mouse 4T1 cells implanted in female BALB/C mouse assessed as inhibition of tumor growth at 20 to 50 mg/kg, po administered every two days for 21 days; assay type: functional, organism-based; settings: dose 20-50 mg/kg, time 21.0 day
# 4T1 [12] = assay: Antitumor activity against mouse 4T1 cells implanted in female BALB/C mouse assessed as inhibition of tumor growth at 20 to 50 mg/kg, iv administered every two days for 21 days; assay type: functional, organism-based; settings: dose 20-50 mg/kg, time 21.0 day
# 4T1 [13] = assay: Antitumor activity against mouse 4T1 cells implanted in female BALB/C mouse assessed as inhibition of tumor weight at 50 mg/kg, iv administered every two days for 21 days relative to control; assay type: functional, organism-based; settings: time 21.0 day
# [14] = Toxicity in female BALB/C mouse implanted with mouse 4T1 cells assessed as change in serum LDH level at 20 to 50 mg/kg, po administered every two days for 21 days; assay type: organism-based; settings: in vivo, 504 h, dose 20-50 mg/kg, time 21 day
# [15] = Toxicity in female BALB/C mouse implanted with mouse 4T1 cells assessed as change in serum CK level at 20 to 50 mg/kg, po administered every two days for 21 days; assay type: organism-based; settings: in vivo, 504 h, dose 20-50 mg/kg, time 21 day
# [16] = Toxicity in female BALB/C mouse implanted with mouse 4T1 cells assessed as change in serum ALT level at 20 to 50 mg/kg, iv administered every two days for 21 days; assay type: organism-based; settings: in vivo, 504 h, dose 20-50 mg/kg, time 21 day
# [17] = Toxicity in female BALB/C mouse implanted with mouse 4T1 cells assessed as change in serum CREA level at 20 to 50 mg/kg, iv administered every two days for 21 days; assay type: organism-based; settings: in vivo, 504 h, dose 20-50 mg/kg, time 21 day
# [18] = Toxicity in female BALB/C mouse implanted with mouse 4T1 cells assessed as change in RBC level at 20 to 50 mg/kg, po administered every two days for 21 days by routine blood analysis; assay type: organism-based; settings: in vivo, 504 h, dose 20-50 mg/kg, time 21 day
structure (smiles),measurement,setting,value
CCC(=O)NC(n1cnc2c(Nc3cc(OC)c(OC)c(OC)c3)nc(N)nc21)C(Cl)(Cl)Cl (centres undefined),IC50,MDA-MB-468,7.24 µM
same,Activity,MDA-MB-231 [1],32.3%
same,Activity,MDA-MB-231 [2],40.1%
same,Activity,MDA-MB-231 [3],13.3%
same,Activity,MDA-MB-231 [4],10.6%
same,Activity,MDA-MB-231 [5],Dose-Dependent Effect
same,Activity,MDA-MB-231 [6],Active
same,Activity,MDA-MB-231 [7],4.37%
same,Activity,MDA-MB-231 [8],1.87%
same,Activity,MDA-MB-231 [9],4.54%
same,viability at 20 µM,MDA-MB-231 [10],91.7%
same,Activity,4T1 [11],Active
same,Activity,4T1 [12],Active
same,Activity,4T1 [13],inactive
same,Activity,[14],Non-Toxic
same,Activity,[15],Non-Toxic
same,Activity,[16],Non-Toxic
same,Activity,[17],Non-Toxic
same,Activity,[18],Non-Toxic
